Paper PMC10804683, “Identification of the pyridoxal 5′‐phosphate allosteric site in human pyridox(am)ine 5′‐phosphate oxidase” (Protein Science : A Publication of the Protein Society, 2024)
Substitutions are numbered along the chain they refer to. “Also recorded” adds a separate entry of the source.

Key:
[1] = target: T1, human PNPO F48A variant (holo-enzyme) (Homo sapiens, UniProt Q9NVS9, F48A); experiment: PLP binding by FMN fluorescence changes, holo F48A; settings: 100 nM enzyme, read-out: PLP binding KD^FLUO
T1 construct: a main form corresponding to the entire protein; made in house; host or cells: E. coli BL21(DE3)
T1 sequence (Q9NVS9 1-261 F48A): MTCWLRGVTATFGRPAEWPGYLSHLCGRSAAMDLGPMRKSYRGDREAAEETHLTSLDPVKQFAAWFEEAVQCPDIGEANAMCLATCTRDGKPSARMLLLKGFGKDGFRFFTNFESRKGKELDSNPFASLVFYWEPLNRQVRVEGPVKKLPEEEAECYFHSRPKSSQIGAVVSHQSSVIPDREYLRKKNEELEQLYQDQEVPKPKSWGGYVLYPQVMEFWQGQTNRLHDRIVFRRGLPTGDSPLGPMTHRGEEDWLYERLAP
Text: (§1) PLP binding to PNPO can be detected and quantitatively measured using differential scanning fluorimetry (DSF) and also by measuring FMN fluorescence changes. We had previously attributed DSF changes to PLP binding at the active site, while FMN fluorescence changes were attributed to PLP binding at the allosteric site (Barile et al., [2019], [2020]). Previous experiments carried out with the PNPO R161C variant, affecting a residue that is essential for substrate binding and catalysis (and therefore also for PLP binding at the active site), confirms that DSF measurements only report PLP binding at the active site (Barile et al., [2021]; Table 1). […] We expected to observe no FMN fluorescence changes upon titration of the variants with PLP. However, this was not the case, and the dissociation constant values obtained by observing the FMN fluorescence emission were only up to threefold larger in the variants with respect to wild type PNPO (Figure 3). […] To check the second possibility, we measured intrinsic fluorescence changes of wild type and variant apo‐forms (i.e., without FMN) upon PLP titration. […]
(§2) Analyses of PLP binding, based on FMN fluorescence increase observed upon binding of PLP to PNPO, were performed as described in Barile et al. ([2020]). […] Emission spectra were recorded from […], with excitation and emission slits set at 3 and 5 nm, respectively. […]

[2] = target: T2, human PNPO F48A/E50L/R161C/R258L variant (holo-enzyme) (Homo sapiens, UniProt Q9NVS9, E50L/F48A/R161C/R258L); experiment: PLP binding by fluorescence, F48A/E50L/R161C/R258L (35% FMN-saturated); settings: text: titrated by exciting at 280 nm
T2 construct: a main form corresponding to the entire protein; made in house; host or cells: E. coli BL21(DE3)
T2 sequence (Q9NVS9 1-261 F48A/E50L/R161C/R258L): T1 sequence (Q9NVS9 1-261 F48A) with E50L, R161C, R258L
Text: as §1, §2

[3] = target: T3, human PNPO F48A/E50L/H248N/R258L variant (Homo sapiens, UniProt Q9NVS9, E50L/F48A/H248N/R258L); experiment: PLP inhibition kinetics of PNP oxidation, quadruple variant; type: biochemical; settings: Na-HEPES pH 7.6, 2 μM enzyme, PLP 0–16 μM
T3 construct: a main form corresponding to the entire protein; made in house; host or cells: E. coli BL21(DE3)
T3 sequence (Q9NVS9 1-261 F48A/E50L/H248N/R258L): T1 sequence (Q9NVS9 1-261 F48A) with E50L, H248N, R258L
Protocol: This is a general inhibition mechanism that takes into account the possibility of PLP binding to both the active and allosteric sites. PLP binding at the active site gives a complete, competitive inhibition, whereas PLP binding at the allosteric site yields a substrate‐enzyme‐PLP ternary complex that is still catalytically active, although k CAT is reduced by a coefficient whose value is around 0.15. A thorough inhibition kinetic characterization was carried out with the wild type, F48A, F48A/E50L/R258L, and F48A/E50L/H248N/R258L PNPO forms, so as to evaluate the effect of the variations on the allosteric properties of the enzyme. The initial velocity of PNP conversion into PLP was measured in Na‐HEPES buffer (in which PLP is allowed to accumulate) by varying substrate concentration at different, fixed exogenous PLP concentrations, using 2 μM enzyme. A series of saturation curves were obtained that were used to fit the Michaelis–Menten equation (Figure 5), acquiring apparent V MAX and K M values as a function of PLP concentration. […]
FIGURE 5 Characterization of PLP inhibition. Upper panels: The initial velocity of the reaction was measured with 2 μM wild type (a), and the F48A (b), F48A/E50L/R258L (c), and F48A/E50L/H248N/R258L (d) PNPO variants, varying PNP concentration while keeping exogenous PLP fixed at different concentrations (0, 0.25, 0.5, 1, 2, 4, 8, and 16 μM). […]

Cc1ncc(COP(=O)(O)O)c(C=O)c1O [PLP, pyridoxal 5′‐phosphate]
Kd [1]: 1.46 ± 0.09 µM | PLP binding KD^FLUO [2]: no variation in the emitted fluorescence was observed; also recorded: No binding | type of inhibition of PNP oxidation by PLP [3]: pure competitive inhibition
